According to patent US4798892A, “2-hydroxypropylamine heteroaryl ester derivatives” (priority 1986, dated 1989):
Where “and” joins values, the source holds several entries; their conditions need not be identical. Equal values may be shown once. Where a name gives a salt, the structure may show the parent alone. Read-outs that look alike come from different tables or passages of the source.

Experiments:
[1] = biological target: T1, beta adrenergic receptor (guinea pig right atria) (Cavia porcellus, UniProt H0W3H1); experiment: Beta-blocking activity in vitro, guinea pig right atria (blockade of isoproterenol rate response)
T1 construct: guinea pig right atria and guinea pig tracheal strips mounted in a tissue bath; from tissue; host or cells: guinea pig right atria, spontaneously beating
T1 sequence (H0W3H1 1-470): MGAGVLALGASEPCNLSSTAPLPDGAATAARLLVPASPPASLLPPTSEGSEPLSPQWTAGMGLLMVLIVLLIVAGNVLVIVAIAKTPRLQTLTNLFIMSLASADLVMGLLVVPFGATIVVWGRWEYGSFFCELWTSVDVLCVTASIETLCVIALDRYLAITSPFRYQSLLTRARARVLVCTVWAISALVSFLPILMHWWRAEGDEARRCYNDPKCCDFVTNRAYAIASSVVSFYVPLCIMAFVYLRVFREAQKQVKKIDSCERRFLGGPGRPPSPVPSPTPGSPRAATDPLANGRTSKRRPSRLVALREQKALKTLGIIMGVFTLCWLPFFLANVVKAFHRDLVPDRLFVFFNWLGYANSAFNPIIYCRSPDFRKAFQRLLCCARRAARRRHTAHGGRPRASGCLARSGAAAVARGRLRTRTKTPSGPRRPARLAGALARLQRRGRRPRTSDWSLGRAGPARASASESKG

[2] = test system: beta adrenergic receptor (heart rate response to isoproterenol); experiment: Duration and potency of beta-blocking action in vivo, 3-hour infusion in pentobarbital-anesthetized dogs; set-up: species or system dog; details: for % Inhibition / Time for 50% Rec. / Time for 80% Rec.: Table IV, dose 2.4 / 22.0 ug/kg/min.; for Potency / % I (Percent inhibition of heart rate response to isoproterenol) / Recovery Time 50% / Recovery Time 80%: Table II; for Potency: infusion rate adjusted so isoproterenol inhibition averaged about 50% at end of 3-hour infusion; for % I (Percent inhibition of heart rate response to isoproterenol): isoproterenol 0.5 μg/kg bolus, 3-hour infusion; for Recovery Time 50% / Recovery Time 80%: after termination of 3-hour infusion
Description: The duration of β-blockade was determined in vivo using pentobarbital-anesthetized dogs instrumented for measurement of heart rate using a Beckman cardiotachometer triggered electronically by a phasic aortic blood pressure signal. Both vagus nerves were severed in the cervical region and the animals were mechanically ventilated. The experimental design used employed a 3-hour infusion of test compound. Bolus doses of isoproterenol (0.5 μg/kg) were used to assess the degree of β-blockade and recovery from β-blockade after […] of the infusion. The doses were spaced at 10-minute intervals and were given before, during and following the infusion of test compounds. The infusion rate was adjusted so that at the end of the 3-hour infusion period the degree of isoproterenol inhibition averaged about 50% of control. Following termination of blocker infusion, percent recovery from β-blockade was computed and the time associated with 80% recovery estimated.

[3] = Enzymatic hydrolysis of beta blockers by dog aqueous humor (procedure C); assay type: in vitro ADME; details: for remaining at 1 h / remaining at 2 h: 37° C.; for remaining at 1 h: read-out: Percent drug remaining, dog aqueous humor, 1 HR; for remaining at 2 h: read-out: Percent drug remaining, dog aqueous humor, 2 HR; for half-life: approximate value determined by procedure C, read-out: T1/2 dog aqueous humor
Description: (§1) Chemicals--Acetonitrile was "HPLC" grade. Distilled water was used to dissolve the compounds and 0.01N HCl was used to dissolve compounds requiring an acidic pH for dissolution.
(§2) Enzyme Source--Fresh aqueous humor was collected from eyes of dogs using a 23-gauge needle while fresh dog blood was collected into heparinized Vacutainer tubes. Fresh liver was homogenized in 0.9% NaCl using a Potter-Elvehjem Teflon pestle and glass homogenizer making a 25% (W/V) homogenate.
(§3) Incubation Condition--A 0.5 ml aliquot of dog aqueous humor, blood or liver homogenate was incubated with 12.5 μg (0.5 ml) of beta blocker in a Dubnoff shaking metabolic incubator at 37° C. for 60 and 120 min. Denatured tissue controls were prepared by adding 2.0 ml of acetonitrile into 0.5 ml of aqueous humor, blood or liver homogenate to destroy esterase activities prior to addition of the beta blockers. The controls were then incubated at 37° C. for 120 min. After 60 and 120 min, the incubations were terminated by addition of 2 ml of acetonitrile and immediately mixed by a Vortex® to stop esterase activities.
(§4) Sample Processing and Data Analyses--All samples were centrifuged at 4000 RPM for 10 min to sediment denatured proteins. The resultant supernatants were transferred to WISP® vials and analyzed using an HPLC assay developed for beta blockers. The hydrolysis of beta blockers by aqueous humor, blood and liver homogenate was determined by disappearance of the compounds. The extent of enzymatic hydrolysis by each tissue was determined by comparing the amount of each compound (absolute peak area) recovered at each time point to the amount of each compound (absolute peak area) in denatured tissue control and aqueous control samples. The results of these experiments are shown in Tabe III.

[4] = Enzymatic hydrolysis of beta blockers by dog liver homogenate (procedure C); assay type: in vitro ADME; details: for remaining at 1 h / remaining at 2 h: dog, liver homogenate, 37° C.; for remaining at 1 h: read-out: Percent drug remaining, dog liver homogenate, 1 HR; for remaining at 2 h: read-out: Percent drug remaining, dog liver homogenate, 2 HR
Description: as §1, §2, §3, §4

[5] = Half-lives of beta blockers in dog whole blood (procedure D); assay type: in vitro ADME; details: 37° C., read-out: T1/2 dog blood
Description: (§5) The rate of disappearance of a compound is expressed as the half-life (T1/2), which is the time period in which one half of the initial amount of compound tested disappears. In each experiment, 1 ml of a solution containing 50 μg of the test compound was added to 1 ml of whole blood or 1 ml of a 33% (w/v) liver homogenate. The samples were incubated in a Dubnoff shaking metabolic incubator for 2.5, 5.0, 10.0, 20.0, 30.0 and 60.0 minutes at 37° C. At the designated time periods, the test mixtures were removed from the incubator and transferred to a 0° C. ice bath. Acetonitrile (2 ml) was immediately added and the mixtures were mixed to stop enzymatic hydrolysis. Zero time samples were prepared by adding 2 ml of acetonitrile to denature the proteins prior to addition of the test compounds. After centrifugation to sediment denatured proteins, 2 ml of the supernatant was removed and analyzed by high pressure liquid chromatography, using a mobile phase of 60% acetonitrile/40% 0.05 m sodium phosphate buffer (pH 6.6), a U.V. detector and Waters u Bondapak Phenyl column. The half life of each test compound was determined graphically by plotting the decrease in concentrations as a function of time.

[6] = Enzymatic hydrolysis of beta blockers by dog blood (procedure C); assay type: in vitro ADME; details: for remaining at 1 h / remaining at 2 h: dog, blood, 37° C.; for remaining at 1 h: read-out: Percent drug remaining, dog blood, 1 HR; for remaining at 2 h: read-out: Percent drug remaining, dog blood, 2 HR
Description: as §1, §2, §3, §4

[7] = Half-lives of beta blockers in dog liver homogenate (procedure D); assay type: in vitro ADME; details: 33% (w/v) homogenate, 37° C., read-out: T1/2 dog liver homogenate
Description: as §5

[8] = Table I, guinea pig right atria, isoproterenol agonist, 60-minute incubation, 37° C., read-out: PA2 Rt. Atria (converted)

SMILES: CC(C)(CNC(=O)N1CCOCC1)NCC(O)COC(=O)c1ccco1 (stereo not drawn)
- pA2 (atria) ([1]; Table IV): 7.6
- % Inhibition [2]: 40%
- Time for 50% Rec. [2]: 9 min
- Time for 80% Rec. [2]: 30 min

SMILES: CC(C)(CNC(=O)N1CCCCC1)NCC(O)COC(=O)c1ccco1 (stereo not drawn)
- Kb ([1]; Table IV, read-out: pA2 (atria) (converted)): 100 nM
- % Inhibition [2]: 59%
- Time for 50% Rec. [2]: 5 min
- Time for 80% Rec. [2]: 17 min

SMILES: CC(C)NC[C@H](O)COc1cccc2ccccc12 (racemic) [Propanolol, reference compound]
- Potency [2]: 0.2 mg/kg/180 min
- % I (Percent inhibition of heart rate response to isoproterenol) [2]: 67 ± 6%

SMILES: CC(C)C(=O)NCCNCC(O)COC(=O)c1ccccc1F (stereo not drawn) [Example I, 3-[[2-(Isopropylcarbonylamino)]ethyl]amino-2-hydroxypropyl 2-Fluorobenzoate Hydrochloride]
- Kb [1, 8]: 794 nM

SMILES: CC(C)C(=O)NCC(C)(C)NCC(O)COC(=O)c1ccccc1F (stereo not drawn) [Example V, 3-[1,1-Dimethyl-2-(isopropylcarbonylamino)]ethylamino-2-hydroxypropyl 2-Fluorobenzoate Oxalate Monohydrate]
- remaining at 1 h [3]: 75%
- remaining at 2 h [3]: 49%
- half-life [3]: ~120 min
- remaining at 1 h [4]: 0%
- remaining at 2 h [4]: 0%
- half-life [5]: 20 min
- remaining at 1 h [6]: 12%
- remaining at 2 h [6]: 8%
- half-life [7]: 3.5 min
- Kb [1, 8]: 158 nM
- experiments did not recover to 80% within 60 min ([2]; Table II footnote c): 2/6
- Recovery Time 50% [2]: 10 ± 2 min
- Recovery Time 80% [2]: 22 ± 6 min
- Potency [2]: 0.6 mg/kg/180 min
- % I (Percent inhibition of heart rate response to isoproterenol) [2]: 62 ± 5%

SMILES: CC(C)(CNC(=O)C1CCCCC1)NCC(O)COC(=O)c1ccccc1F (stereo not drawn) [Example VI, 3-[1,1-Dimethyl-2-(cyclohexylcarbonylamino)]ethylamino-2-hydroxypropyl 2-Fluorobenzoate Oxalate]
- Kb [1, 8]: 20 nM
- Recovery Time 50% [2]: 8 ± 3 min
- Recovery Time 80% [2]: 12 ± 3 min
- Potency [2]: 1.4 mg/kg/180 min
- % I (Percent inhibition of heart rate response to isoproterenol) [2]: 61%

SMILES: CC(C)(CNC(=O)Cc1ccccc1)NCC(O)COC(=O)c1ccccc1F (stereo not drawn) [Example VII, 3-[1,1-Dimethyl-2-(benzylcarbonylamino)]ethylamino-2-hydroxypropyl 2-Fluorobenzoate Hydrochloride]
- remaining at 1 h [3]: 69%
- remaining at 2 h [3]: 46%
- half-life [3]: ~120 min
- metabolised at 1 h ([3]; one hour, read-out: hydrolyzed in aqueous humor after one hour): 31%
- metabolised at 2 h ([3]; two hours, read-out: hydrolyzed in aqueous humor after two hours): 54%
- remaining at 1 h [4]: 0%
- remaining at 2 h [4]: 0%
- hydrolysis in liver homogenate ([4]; within 60 minutes): completely hydrolyzed
- half-life [5]: 6 min
- remaining at 1 h [6]: 0%
- remaining at 2 h [6]: 0%
- hydrolysis in dog blood ([6]; within 60 minutes): completely hydrolyzed
- half-life [7]: 25 min
- Kb [1, 8]: 39.8 nM
- Recovery Time 50% [2]: 8 min
- Recovery Time 80% [2]: 19 min
- Potency [2]: 1.8 mg/kg/180 min
- % I (Percent inhibition of heart rate response to isoproterenol) [2]: 68%

SMILES: CNC(=O)NCC(C)(C)NCC(O)COC(=O)c1ccccc1F (stereo not drawn) [Example XI, 3-[1,1-Dimethyl-2-(methylaminocarbonylamino)]ethylamino-2-hydroxypropyl 2-Fluorobenzoate Hemioxalate]
- Kb [1, 8]: 316 nM
- Recovery Time 80% [2]: > 60 min
- Potency [2]: 0.2 mg/kg/180 min
- % I (Percent inhibition of heart rate response to isoproterenol) [2]: 81% and 71%

SMILES: CC(C)(CNC(=O)N1CCOCC1)NCC(O)COC(=O)c1ccc(O)c(O)c1 (stereo not drawn) [Example XXXV, 3-[2-[1,1-Dimethyl-2-(1-morpholinocarbonylamino)]ethyl]amino-2-hydroxypropyl 3,4-Dihydroxybenzoate Oxalate Monohydrate]
- Kb [1, 8]: 6.31 nM
